Where a name gives a salt, the structure may show the parent alone. Read-outs that look alike come from different tables or passages of the source.
Target: T1, BRAFV600E full-length (amino acids 2-766) (Homo sapiens, UniProt P15056, V600E)
T1 construct: His6-tagged BRAFV600E full-length (amino acids 2-766); His6; made in house; host or cells: baculovirus expression system (insect cells)
Assay: B-Raf Accelerated MEK ATPase assay (BRAMA)
Format: biochemical
Conditions: categorized
Protocol: Compounds of the present invention were tested for B-Raf protein serine kinase inhibitory activity in a B-Raf Accelerated MEK ATPase assay (BRAMA). […] The BRAMA assay is a high sensitivity assay which measures an intrinsic MEK-mediated ATP hydrolysis uncoupled from downstream ERK phosphorylation by coupling the formation of ADP to NADH oxidation through the enzymes pyruvate kinase and lactate dehydrogenase. When ADP production is initiated by addition of catalytic amounts of an activated Raf enzyme and non-phosphorylated MEK, one observes robust ADP production concomitant with Raf-mediated phosphorylation of MEK. The method is disclosed in: C. Rominger, M. Schaber, E. May. Assay for B-Raf Activity Based on Intrinsic MEK ATPase Activity.

[1] = B-Raf Activity, Table 1a, highest pIC50 for the one or more runs
[2] = B-Raf pIC50, Table 1b, later runs, average pIC50 for the one or more runs
[3] = Table 1b, later runs, average pIC50 for the one or more runs, read-out: B-Raf pIC50 (converted)
[4] = Table 1a, highest pIC50 for the one or more runs, read-out: B-Raf Activity

T1 sequence (P15056 2-766 V600E): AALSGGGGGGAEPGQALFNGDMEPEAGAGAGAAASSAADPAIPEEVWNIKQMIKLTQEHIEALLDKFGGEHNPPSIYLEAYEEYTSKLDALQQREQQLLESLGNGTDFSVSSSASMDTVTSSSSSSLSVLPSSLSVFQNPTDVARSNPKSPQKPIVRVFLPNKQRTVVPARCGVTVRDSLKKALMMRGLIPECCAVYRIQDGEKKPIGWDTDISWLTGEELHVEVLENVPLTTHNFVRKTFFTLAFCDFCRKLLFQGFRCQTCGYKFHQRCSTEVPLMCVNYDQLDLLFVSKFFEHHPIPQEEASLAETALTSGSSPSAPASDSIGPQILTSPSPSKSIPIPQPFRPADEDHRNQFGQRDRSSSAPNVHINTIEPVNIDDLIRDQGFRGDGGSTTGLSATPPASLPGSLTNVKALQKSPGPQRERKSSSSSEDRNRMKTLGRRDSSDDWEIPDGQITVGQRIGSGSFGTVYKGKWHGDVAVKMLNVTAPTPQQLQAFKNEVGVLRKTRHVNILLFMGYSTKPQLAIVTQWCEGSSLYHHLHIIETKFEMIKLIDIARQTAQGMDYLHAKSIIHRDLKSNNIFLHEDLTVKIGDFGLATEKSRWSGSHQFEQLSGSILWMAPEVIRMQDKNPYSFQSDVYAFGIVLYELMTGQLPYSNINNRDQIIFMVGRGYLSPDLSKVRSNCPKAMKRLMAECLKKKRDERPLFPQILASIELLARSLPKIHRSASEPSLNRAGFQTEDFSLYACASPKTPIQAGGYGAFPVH

IC50 [3] [µM]	Structure (SMILES)	IC50 [1] [µM]	IC50 [2] [µM]	other results
	CC(C)c1nc(-c2cccc(NS(=O)(=O)c3c(F)cccc3F)c2)c(-c2ccnc(NCCS(C)(=O)=O)n2)s1 [Example 1, 2,6-Difluoro-N-{3-[2-(1-methylethyl)-5-(2-{[2-(methylsulfonyl)ethyl]amino}-4-pyrimidinyl)-1,3-thiazol-4-yl]phenyl}benzenesulfonamide]	< 0.1	≤ 0.00316	
	CC(C)c1nc(-c2cccc(NS(=O)(=O)c3c(F)cccc3F)c2F)c(-c2ccnc(NCCS(C)(=O)=O)n2)s1 [Example 11, 2,6-Difluoro-N-{2-fluoro-3-[2-(1-methylethyl)-5-(2-{[2-(methylsulfonyl)ethyl]amino}-4-pyrimidinyl)-1,3-thiazol-4-yl]phenyl}benzenesulfonamide]	< 0.1	≤ 0.00316	
	CC(C)c1nc(-c2ccc(F)c(NS(=O)(=O)c3cccc(F)c3)c2)c(-c2ccnc(N)n2)s1 [Example 84, N-{5-[5-(2-Amino-4-pyrimidinyl)-2-(1-methylethyl)-1,3-thiazol-4-yl]-2-fluorophenyl}-3-fluorobenzenesulfonamide]	0.1 to 1	0.0316 to 1	
	CC(C)c1nc(-c2cccc(NS(=O)(=O)c3cccc(F)c3)c2)c(-c2ccnc(NC3CC3)n2)s1 [Example 89, N-{3-[5-[2-(Cyclopropylamino)-4-pyrimidinyl]-2-(1-methylethyl)-1,3-thiazol-4-yl]phenyl}-3-fluorobenzenesulfonamide]	< 0.1	0.0316 to 1	
	CC(C)c1nc(-c2cccc(NS(=O)(=O)c3c(F)cccc3F)c2)c(-c2ccnc(N)n2)s1 [Example 90, N-{3-[5-(2-Amino-4-pyrimidinyl)-2-(1-methylethyl)-1,3-thiazol-4-yl]phenyl}-2,6-difluorobenzenesulfonamide]	< 0.1	0.0316 to 1	
	Nc1nccc(-c2scnc2-c2cccc(NS(=O)(=O)c3c(F)cccc3F)c2)n1 [Example 114, N-{3-[5-(2-Amino-4-pyrimidinyl)-1,3-thiazol-4-yl]phenyl}-2,6-difluorobenzenesulfonamide]	0.1 to 1	0.0316 to 1	
	CC(C)c1nc(-c2ccc(F)c(NS(=O)(=O)c3c(F)cccc3F)c2)c(-c2ccnc(NCCCN(C)C)n2)s1 [Example 169]			IC50 [4]: > 1 µM
	CC(C)c1nc(-c2ccc(F)c(NS(=O)(=O)c3c(F)cccc3F)c2)c(-c2ccnc(NCCN3CCCC3)n2)s1 [Example 170]			IC50 [4]: > 1 µM
	CC(C)c1nc(-c2ccc(F)c(NS(=O)(=O)c3c(F)cccc3F)c2)c(-c2ccnc(NCCN3CCOCC3)n2)s1 [Example 171]			IC50 [4]: 0.1 to 1 µM
	CC(C)c1nc(-c2ccc(F)c(NS(=O)(=O)c3c(F)cccc3F)c2)c(-c2ccnc(NCCOCCO)n2)s1 [Example 172]			IC50 [4]: 0.1 to 1 µM
	CC(C)c1nc(-c2ccc(F)c(NS(=O)(=O)c3c(F)cccc3F)c2)c(-c2ccnc(NCCCCN(C)C)n2)s1 [Example 173]			IC50 [4]: 0.1 to 1 µM
	COCCCNc1nccc(-c2sc(C(C)C)nc2-c2ccc(F)c(NS(=O)(=O)c3c(F)cccc3F)c2)n1 [Example 174]			IC50 [4]: 0.1 to 1 µM
0.00316 to 0.0316	CCc1nc(-c2cccc(NS(=O)(=O)c3c(F)cccc3F)c2F)c(-c2ccnc(N)n2)s1 [Example 257, N-{3-[5-(2-amino-4-pyrimidinyl)-2-ethyl-1,3-thiazol-4-yl]-2-fluorophenyl}-2,6-difluorobenzenesulfonamide]			
	CC(C)(C)c1nc(-c2c(F)ccc(NS(=O)(=O)c3cc(F)ccc3F)c2F)c(-c2ccncn2)s1 [Example 260, N-{3-[2-(1,1-dimethylethyl)-5-(4-pyrimidinyl)-1,3-thiazol-4-yl]-2,4-difluorophenyl}-2,5-difluorobenzenesulfonamide]		≤ 0.00316	
	CC(C)(C)c1nc(-c2cccc(NS(=O)(=O)c3ccco3)c2Cl)c(-c2ccncn2)s1 [Example 261, N-{2-chloro-3-[2-(1,1-dimethylethyl)-5-(4-pyrimidinyl)-1,3-thiazol-4-yl]phenyl}-2-furansulfonamide]		≤ 0.00316	
	CC(C)(C)c1nc(-c2cccc(NS(=O)(=O)c3ccoc3)c2Cl)c(-c2ccncn2)s1 [Example 268, N-{2-chloro-3-[2-(1,1-dimethylethyl)-5-(4-pyrimidinyl)-1,3-thiazol-4-yl]phenyl}-3-furansulfonamide]		≤ 0.00316	
	CS(=O)(=O)NCc1nccc(-c2sc(N3CCOCC3)nc2-c2cccc(NS(=O)(=O)c3cc(F)ccc3F)c2F)n1 [Example 273, 2,5-difluoro-N-{2-fluoro-3-[5-(2-{[(methylsulfonyl)amino]methyl}-4-pyrimidinyl)-2-(4-morpholinyl)-1,3-thiazol-4-yl]phenyl}benzenesulfonamide]		≤ 0.00316	
0.00316 to 0.0316	O=C(NCc1nccc(-c2sc(N3CCOCC3)nc2-c2cccc(NS(=O)(=O)c3cc(F)ccc3F)c2F)n1)C1CCCC1 [Example 274, N-({4-[4-(3-{[(2,5-difluorophenyl)sulfonyl]amino}-2-fluorophenyl)-2-(4-morpholinyl)-1,3-thiazol-5-yl]-2-pyrimidinyl}methyl)cyclopentanecarboxamide]			
0.00316 to 0.0316	CC(C)C(=O)NCc1nccc(-c2sc(N3CCOCC3)nc2-c2cccc(NS(=O)(=O)c3cc(F)ccc3F)c2F)n1 [Example 275, N-({4-[4-(3-{[(2,5-difluorophenyl)sulfonyl]amino}-2-fluorophenyl)-2-(4-morpholinyl)-1,3-thiazol-5-yl]-2-pyrimidinyl}methyl)-2-methylpropanamide]			
0.00316 to 0.0316	CC(=O)NCc1nccc(-c2sc(N3CCOCC3)nc2-c2cccc(NS(=O)(=O)c3cc(F)ccc3F)c2F)n1 [Example 276, N-({4-[4-(3-{[(2,5-difluorophenyl)sulfonyl]amino}-2-fluorophenyl)-2-(4-morpholinyl)-1,3-thiazol-5-yl]-2-pyrimidinyl}methyl)acetamide]			
0.00316 to 0.0316	C=Cc1nccc(-c2sc(N3CCOCC3)nc2-c2cccc(NS(=O)(=O)c3cc(F)ccc3F)c2F)n1 [Example 277, N-{3-[5-(2-ethenyl-4-pyrimidinyl)-2-(4-morpholinyl)-1,3-thiazol-4-yl]-2-fluorophenyl}-2,5-difluorobenzenesulfonamide]			
0.00316 to 0.0316	Nc1nccc(-c2sc(C3CCOCC3)nc2-c2cccc(NS(=O)(=O)c3ccccn3)c2F)n1 [Example 279, N-{3-[5-(2-amino-4-pyrimidinyl)-2-(tetrahydro-2H-pyran-4-yl)-1,3-thiazol-4-yl]-2-fluorophenyl}-2-pyridinesulfonamide]			
	Cn1ccc(S(=O)(=O)Nc2cccc(-c3nc(C(C)(C)C)sc3-c3ccnc(N)n3)c2F)n1 [Example 288, N-{3-[5-(2-amino-4-pyrimidinyl)-2-(1,1-dimethylethyl)-1,3-thiazol-4-yl]-2-fluorophenyl}-1-methyl-1H-pyrazole-3-sulfonamide hydrochloride]		0.0316 to 1	
	Cn1ccc(S(=O)(=O)Nc2cccc(-c3nc(C4CCOCC4)sc3-c3ccnc(N)n3)c2F)n1 [Example 289, N-{3-[5-(2-amino-4-pyrimidinyl)-2-(tetrahydro-2H-pyran-4-yl)-1,3-thiazol-4-yl]-2-fluorophenyl}-1-methyl-1H-pyrazole-3-sulfonamide hydrochloride]		0.0316 to 1	
	C[C@@H](O)CNc1nccc(-c2sc(C(C)(C)C)nc2-c2cccc(NS(=O)(=O)c3c(F)cccc3F)c2F)n1 [Example 290, N-{3-[2-(1,1-dimethylethyl)-5-(2-{[(2R)-2-hydroxypropyl]amino}-4-pyrimidinyl)-1,3-thiazol-4-yl]-2-fluorophenyl}-2,6-difluorobenzenesulfonamide]		≤ 0.00316	

Structure (SMILES)	IC50 [3] [µM]	IC50 [1] [µM]	IC50 [2] [µM]	other results
CC(C)c1nc(-c2ccc(F)c(NS(=O)(=O)c3c(F)cccc3F)c2)c(-c2ccnc(NCCS(C)(=O)=O)n2)s1 [Example 8, 2,6-Difluoro-N-{2-fluoro-5-[2-(1-methylethyl)-5-(2-{[2-(methylsulfonyl)ethyl]amino}-4-pyrimidinyl)-1,3-thiazol-4-yl]phenyl}benzenesulfonamide]	0.00316 to 0.0316	< 0.1		
CC(C)(C)c1nc(-c2ccc(F)c(NS(=O)(=O)c3c(F)cccc3F)c2)c(-c2ccnc(NCCS(C)(=O)=O)n2)s1 [Example 10, N-{5-[2-(1,1-Dimethylethyl)-5-(2-{[2-(methylsulfonyl)ethyl]amino}-4-pyrimidinyl)-1,3-thiazol-4-yl]-2-fluorophenyl}-2,6-difluorobenzenesulfonamide]	0.00316 to 0.0316	< 0.1		
CC(C)c1nc(-c2cccc(NS(=O)(=O)c3cccc(F)c3)c2)c(-c2ccnc(NCC(N)=O)n2)s1 [Example 87, N^2-{4-[4-(3-{[(3-Fluorophenyl)sulfonyl]amino}phenyl)-2-(1-methylethyl)-1,3-thiazol-5-yl]-2-pyrimidinyl}glycinamide]	0.00316 to 0.0316	< 0.1		
CC(C)c1nc(-c2cccc(NS(=O)(=O)c3cccc(F)c3)c2)c(-c2ccnc(NCCCN(C)C)n2)s1 [Example 88, N-{3-[5-(2-{[3-(Dimethylamino)propyl]amino}-4-pyrimidinyl)-2-(1-methylethyl)-1,3-thiazol-4-yl]phenyl}-3-fluorobenzenesulfonamide]	0.00316 to 0.0316	< 0.1		
CC(C)(C)c1nc(-c2cccc(NS(=O)(=O)c3cc(F)ccc3F)c2)c(-c2ccnc(N)n2)s1 [Example 116, N-{3-[5-(2-Amino-4-pyrimidinyl)-2-(1,1-dimethylethyl)-1,3-thiazol-4-yl]phenyl}-2,5-difluorobenzenesulfonamide]	0.00316 to 0.0316	< 0.1		

Source: patent publication US7994185B2, “Benzene sulfonamide thiazole and oxazole compounds” (Glaxo Smith Kline LLC, priority 2008, dated 2011)
